Assay results published in PMC9643474, “The mycotoxin viriditoxin induces leukemia- and lymphoma-specific apoptosis by targeting mitochondrial metabolism” (Cell Death & Disease, 2022).

Target: T1, complex I (Bos taurus, UniProt P03887+P17694+P42026)
T1 construct: gene NDUFS2; whole respiratory complex I (about 45 subunits) in isolated bovine heart mitochondria, kit assay
Assay: MitoCheck complex activity assay, isolated bovine heart mitochondria
Format: biochemical
Conditions: 15 min, decreased complex I activity, binding site unknown

T1 sequence (P17694 34-463): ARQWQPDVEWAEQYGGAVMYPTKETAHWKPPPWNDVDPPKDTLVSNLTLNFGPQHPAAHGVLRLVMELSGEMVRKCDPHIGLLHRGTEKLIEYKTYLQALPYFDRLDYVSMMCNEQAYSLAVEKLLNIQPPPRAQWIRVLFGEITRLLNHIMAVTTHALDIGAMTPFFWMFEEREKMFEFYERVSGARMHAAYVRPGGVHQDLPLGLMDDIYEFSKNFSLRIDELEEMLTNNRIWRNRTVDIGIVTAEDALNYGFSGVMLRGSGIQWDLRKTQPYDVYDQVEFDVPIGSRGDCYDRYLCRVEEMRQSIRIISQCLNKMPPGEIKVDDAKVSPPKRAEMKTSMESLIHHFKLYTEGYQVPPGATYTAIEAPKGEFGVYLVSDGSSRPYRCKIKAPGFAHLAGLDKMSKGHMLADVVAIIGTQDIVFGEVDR
T1 sequence (P42026 38-216): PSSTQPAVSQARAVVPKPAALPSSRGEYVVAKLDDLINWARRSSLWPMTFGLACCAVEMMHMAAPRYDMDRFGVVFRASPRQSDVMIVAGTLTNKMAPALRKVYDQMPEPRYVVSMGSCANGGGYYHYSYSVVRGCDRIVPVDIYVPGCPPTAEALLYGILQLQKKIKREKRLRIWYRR
T1 sequence (P03887 whole entry): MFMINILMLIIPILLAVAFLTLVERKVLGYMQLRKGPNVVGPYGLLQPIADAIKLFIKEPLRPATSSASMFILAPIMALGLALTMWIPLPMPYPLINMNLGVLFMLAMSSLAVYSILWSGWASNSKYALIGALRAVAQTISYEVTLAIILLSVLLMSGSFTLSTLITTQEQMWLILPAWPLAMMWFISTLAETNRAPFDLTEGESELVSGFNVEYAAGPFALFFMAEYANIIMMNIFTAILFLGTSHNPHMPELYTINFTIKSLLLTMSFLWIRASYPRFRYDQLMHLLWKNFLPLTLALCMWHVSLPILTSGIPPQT

SMILES: COC(=O)C[C@@H]1Cc2cc3c(-c4c(OC)cc(O)c5c(O)c6c(cc45)C[C@@H](CC(=O)OC)OC6=O)c(OC)cc(O)c3c(O)c2C(=O)O1 [viriditoxin]
- activity, % of DMSO control at 10 μM: we could observe a decreased activity upon treatment with VDT for complex I
